Source: patent US20160137714A1 (Thrasos Innovation, Inc., priority 2014, published 2016)
“Also recorded” adds a separate entry of the source. Each block holds one compound with its values, some of them ahead of it. Positions of bridges follow the written chain, without caps; N, C: chain ends. Non-standard residues stand in square brackets, D forms with d. Residues, ends and D or L forms follow the SMILES beside them. No end group written: not given here.

Legend:
[1] = fresh mouse or rat plasma; settings: 37° C., up to 120 min (Table 6; protocol lists up to 1440)
[2] = plasma after s.c. administration of 1 mg/kg Compound III; after IV administration
Ex-vivo plasma stability = assay type: in vitro ADME, mouse or rat
Experimental: Test article is added to fresh mouse or rat plasma at a final in-vial concentration of 1 μM. The peptide is incubated in a water bath at 37° C. over a time course that included the following points (in minutes): 0, 15, 30, 60, 120, 240, and 1440. After the incubation time is completed, a 50 μL aliquot of plasma is removed and proteins are precipitated using a solution containing internal standard (THR-123 at 150 ng/mL) in methanol with 0.5% acetic acid (v/v). The samples are centrifuged at 13,000 RPM for 5 minutes, and a 100 μL aliquot of supernatant is removed and transferred to a 96-well plate containing 200 μL of reconstitution solution (Water/MeOH/Acetic Acid/TFA, 60/40/0.2/0.05, v/v/v/v). A calibration curve and quality control (QC) samples are prepared in parallel in the same manner as the incubation samples. The calibration range for this assay is from 0.02 to 2.0 μM in rat or mouse plasma. The extracted calibrants, QC, and incubation samples are injected onto an AB SCIEX API 2000 LC-MS/MS system. Chromatographic separation is performed using a reversed-phase C18 HPLC column (Ace-3 C18, 30×2.1 mm, 3 μm). The solvent system consists of Milli-Q water, acetonitrile and formic acid. Analyte and internal standard are detected using the multiple reaction monitoring (MRM) scan mode. Calibration curves are generated by using a weighted (1/concentration) quadratic regression analysis of the peak area ratios (analyte/internal standard) versus the nominal concentration of the calibration standards. The concentration of the analyte in the incubation samples is determined by back-calculating the peak area ratios obtained using the quadratic regression.

[3] = Pharmacokinetic studies of THR-123 and GPR-294 i.v. and s.c. (FIG. 13, FIGS. 5-8); assay type: in vivo
Experimental: A stock solution of THR-123 was prepared at 250 μg/mL in DMSO. This solution was quantitatively added to blank mouse plasma to generate a calibration curve. The linear range was from 0.25 to 250 ng/mL. A 175 μL aliquot of plasma from removed from each calibrant tube and processed using solid phase extraction (SPE). Study samples were first diluted with blank control mouse plasma, and 175 μL was aliquoted for processing using SPE. An internal standard working solution (ISWS) was added to each calibrant and study sample (GPR-227 at 100 ng/mL in water). Plasma proteins were precipitated with 175 μL of methanol with 0.5% acetic acid (v/v). After centrifugation at 14,800 RPM for 10 minutes, a 300 μL aliquot of supernatant was diluted in water with 4% phosphoric acid (v/v). The entire diluted sample was extracted by SPE using a Waters Oasis HLB 96-well μElution plate. Samples were washed twice using a solution of acidified water (0.1% TFA, v/v) and 15% MeOH in water (v/v). Purified extracts were eluted into a 96-well collection plate using 40 μL of elution solvent. Standards and study samples were injected onto a Thermo Q-exactive LC-MS/MS system. Chromatographic separation was performed using a reversed-phase C18 HPLC column (Waters CSH C18, 50×2.1 mm, 2.5 μm). Analyte and internal standard were detected using the targeted selected ion monitoring (tSIM) scan mode. Calibration curves were generated by using a weighted (1/concentration^2) linear regression of the peak area ratios (analyte/internal standard) versus the nominal concentration of the calibration standards. The concentration of the analyte in the study samples was determined by back-calculating the peak area ratios obtained using the linear regression and applying the appropriate dilution factors.
The study described herein involved single (mouse) or multiple (rat) blood collections after test article administration. Test articles are given by oral (PO), intravenous (IV), subcutaneous (SC) or intraperitoneal (IP) routes. All animals have a five day acclimatization period before dosing. Body weights are recorded prior to dosing. […]

[4] = system: Adriamycin (ADR)-induced proteinuria; assay: Adriamycin (ADR)-induced nephropathy model; assay type: in vivo; settings: rat
From the text: Adriamycine (doxorubicin) is a drug used in chemotherapy. It is known to cause undesirable renal toxicitiy in rat, mainly glomerular damage (via podocyte injury/loss), resulting in proteinuric neophrapthy (Hakroush et al., 2014, J. Am. Soc. Nephrology, 25:927-38), and it is the prototypical model of human primary focal and segmental glomerulosclerosis. ADR-induced mephropathy, in mouse or rat, is a robust in vivo model of proteinuria that can easily and directly be measured in urine, thus allowing for monitoring of disease progression in living animals. It is induced by a single intravenous injection of ADR.
Male CD rats (aged 8 weeks) were acclimatized in the facility for at least 5 days. On Day 0, rats received Adriamycin at a dose level of 7.5 mg/kg by tail vein administration at a dose volume of 5 mL/kg. If needed, an abbocath was used for administration. The abbocath will be flushed with 0.5 mL of 0.9% saline after Adriamycin injection. […]
Once pretreatment and on pre-determined days (e.g. days 5, 10, 15, 20) blood samples (0.7 mL) was collected from the jugular vein in SST tubes and analyzed for serum creatinine and BUN. Once pretreatment and on pre-determined days (e.g. days 5, 10, 15, 20) urine samples were collected overnight from individually housed animals. After collection, serum and urine samples were processed and analyzed for creatinine (serum & urine), BUN (serum) and total protein (urine). […] The time the animals are placed in urine collection cages and time of sample collection was recorded. […]
Once pretreatment and on Day 21, blood samples (0.7 mL) were collected from the jugular vein in SST tubes and analyzed for serum creatinine and BUN. Once pretreatment and on pre-determined days (Days 5, 10, 15, 21) urine samples were collected overnight from individually housed animals. After collection, serum and urine samples were processed and analyzed for creatinine (serum & urine), BUN (serum) and total protein (urine). […] The time the animals are placed in urine collection cages and time of sample collection was recorded. […]

[5] = rat kidney tissue 10 minutes post IV administration; settings: up to 10 minutes
FIGURE 31 (2/2) = assay: FIGURE 31 (2/2)
Experimental: Table printed on a drawing sheet, FIGURE 31 (2/2)
Peptide to internal standard peak area ratios were used calculate percentage remaining peptide at 60 minutes and 120 minutes. Peptides are identified by GPR number (GPR#) and SEQ ID NO.
First reader's note: Second part (2/2) of Figure 31, continued from the previous sheet; in the last row (GPR 478) the empty N-Terminal cell is merged with position 1.

Compound: Cys-Tyr-Tyr-Asp-Asp-Ser-Ser-Ser-Val-Leu-Cys-Lys-Lys-D-tyr-Arg-Ser
not cleaved [1]: 94.7 percent remaining at 120 min

Compound: Cys-Tyr-Phe-Asp-Asp-Ser-Ser-Asn-Val-Leu-Cys-Lys-Lys-D-tyr-Arg-Ser
not cleaved [2]: prevented the proteolytic cleavage between the amino acids 14 and 15

Compound: CCOC(=O)[C@H](CCc1ccccc1)N[C@@H](C)C(=O)N1CCC[C@H]1C(=O)O [Enalapril]
ADR-induced renal lesions in H&E-stained kidney sections ([4]; 21 days post ADR, treated daily, glomerular hypertrophy, protein casts, tubular dilation, neutrophils): absent or reduced in number | effect on ADR-induced proteinuria (urine protein to urine creatinine) ([4]; ADR 7.5 mg/kg, daily for 21 days, GPR-405 300 nmol/kg sc, enalapril 50 mg/kg po): efficacious | effect on serum creatinine (sCr) and blood urea nitrogen (BUN) ([4]; following Adriamycin treatment, GPR-405 300 nmol/kg sc, enalapril 50 mg/kg po, FIG. 24): Neither enalapril nor GPR-405 had any marked effect

Compound: CYFDDSSNVLCKKYRS (cysteine pairing not given here)
cleaved bond [5]: Y14-R15, major, 10 minutes | fragment found [5]: VI (GPR-263) Cys-Tyr-Phe-Asp-Asp-Ser-Ser-Asn-Val-Leu-Cys, 10 minutes; also recorded: VIII (GPR-262) Cys-Tyr-Phe-Asp-Asp-Ser-Ser-Asn-Val-Leu-Cys-Lys, 10 minutes; also recorded: IX (GPR-261) Cys-Tyr-Phe-Asp-Asp-Ser-Ser-Asn-Val-Leu-Cys-Lys-Lys, 10 minutes

More lines, main results first:

remaining at 1 h (Ex-vivo plasma stability; fresh plasma 37° C., 1 μM, 60 min, read-out: Percent remaining 60 min): 72.6% | remaining at 2 h (Ex-vivo plasma stability; fresh plasma 37° C., 1 μM, 120 min, read-out: Percent remaining 120 min): 67.9% | stability toward plasma proteolytic cleavage (Ex-vivo plasma stability; versus THR-123, rat plasma (FIGS. 3 and 4)): enhanced | bioavailability ([3]; in vivo, s.c. versus i.v., FIG. 13, read-out: bioavailable by sub-cutaneous administration): 100%
Compound: CC(C)C[C@@H]1NC(=O)[C@H](C(C)C)NC(=O)[C@H](CC(N)=O)NC(=O)[C@H](CO)NC(=O)[C@H](CO)NC(=O)[C@H](CC(=O)O)NC(=O)[C@H](CC(=O)O)NC(=O)[C@H](Cc2ccccc2)NC(=O)[C@H](Cc2ccc(O)cc2)NC(=O)[C@@H](N)CSSC[C@@H](C(=O)N[C@@H](CCCCN)C(=O)N[C@@H](CCCCN)C(=O)N[C@H](Cc2ccc(O)cc2)C(=O)N[C@@H](CCCNC(=N)N)C(=O)N[C@@H](CO)C(=O)O)NC1=O [GPR-294, Cys-Tyr-Phe-Asp-Asp-Ser-Ser-Asn-Val-Leu-Cys-Lys-Lys-D-tyr-Arg-Ser] (H-CYFDDSSNVLCKK[dY]RS-OH; disulfide 1-11)
plasma half-life compared with THR-123 ([3]; by either route of administration (i.v., s.c.)): much longer plasma half-life than the non-stabilized THR-123

% Remaining at 60 and 120 minutes | 60 (FIGURE 31 (2/2)): 87.7% | % Remaining at 60 and 120 minutes | 120 (FIGURE 31 (2/2)): 78.9%
Compound: Y Y F S S S F V L C K R y* R S [478 | 68]
